Tested on: CDK6
Assay: not given
Settings: cited from earlier work

Compared with `O=c1c(O)c(-c2ccc(O)c(O)c2)oc2cc(O)ccc12` [M03, Fisetin], `O=c1c(O)c(-c2ccc(O)c(O)c2)oc2cc(O)cc(O)c12` [M06, Quercetin] is 31-fold higher in IC50: 0.85 µM for the first, 26 µM for the second. The first is the more potent here.

Molecular target: CDK6 (Homo sapiens, UniProt Q00534)
Assay: Filter-binding kinase assay with [γ-32P]ATP and histone H1
Assay type: biochemical
Settings: 25 μM ATP, 20 min at 30°C, triplicate
Method: To quantify the inhibitory activities of flavonoids on CDK6, the filter-binding assay was performed in 96-well filter plates. The total volume for each well was 0.1mL containing a final concentration of 20mM Tris-HCl (pH 7.4), 50mM NaCl, 1mM dithiothreitol, 10mM MgCl2, 25μM ATP (containing 0.25μCi of [γ-^32P]ATP), 0.1μg of CDK6, 10μg of histone H1, and appropriate dilutions of inhibitor. The reaction was initiated by the addition of [γ-^32P]ATP, and then incubated for 20min at 30°C. Samples were applied to P81 phosphocellulose papers strips (Whatman), and the strips were washed in phosphoric acid solution. The radioactivity was measured by liquid scintillation spectrometry. IC50 values were calculated from the dose-response curves. All experiments were carried out in triplicate.

CDK6 (Homo sapiens, UniProt Q00534), sequence (Q00534 whole entry): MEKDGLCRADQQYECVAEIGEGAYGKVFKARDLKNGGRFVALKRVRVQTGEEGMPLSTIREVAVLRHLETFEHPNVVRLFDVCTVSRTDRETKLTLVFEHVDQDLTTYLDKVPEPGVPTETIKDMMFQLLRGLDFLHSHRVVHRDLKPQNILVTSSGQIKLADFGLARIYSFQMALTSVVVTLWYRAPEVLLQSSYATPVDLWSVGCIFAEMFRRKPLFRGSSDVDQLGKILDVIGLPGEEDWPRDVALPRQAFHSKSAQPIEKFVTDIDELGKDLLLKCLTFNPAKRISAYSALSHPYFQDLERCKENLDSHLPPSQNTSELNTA
CDK6 (Homo sapiens, UniProt Q00534), sequence (P30281 whole entry partner): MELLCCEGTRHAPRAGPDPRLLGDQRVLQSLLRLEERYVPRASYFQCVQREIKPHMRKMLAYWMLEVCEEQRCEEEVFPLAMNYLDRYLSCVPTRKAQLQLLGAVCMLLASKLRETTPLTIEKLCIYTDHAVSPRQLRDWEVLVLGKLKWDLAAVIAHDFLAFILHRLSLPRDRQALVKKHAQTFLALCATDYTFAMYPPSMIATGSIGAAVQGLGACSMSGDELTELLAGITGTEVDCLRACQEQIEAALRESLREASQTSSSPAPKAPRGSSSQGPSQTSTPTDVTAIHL

Going from `O=c1cc(-c2ccccc2)oc2cc(O)cc(O)c12` [M01, Chrysin] to `O=c1c(O)c(-c2ccccc2)oc2cc(O)cc(O)c12` [M04, Galangin], the IC50 rises from 4.5 ± 0.4 µM to 52 ± 2.8 µM (12-fold).

`O=c1c(O)c(-c2ccc(O)cc2)oc2cc(O)cc(O)c12` [M07, Kaempferol] and `O=c1c(O)c(-c2ccc(O)c(O)c2)oc2cc(O)cc(O)c12` [M06, Quercetin] are within 1.5-fold of each other in IC50: 19.8 ± 1.6 µM for the first, 26.3 ± 1.9 µM for the second.

First: O=c1c(-c2ccc(O)cc2)coc2cc(O)cc(O)c12 [M05, Genistein]
Second: O=c1cc(-c2ccc(O)c(O)c2)oc2cc(O)ccc12 [M15, 3’, 4’, 7-trihydroxyflavone]
The IC50 of the first is 1.6-fold higher: 38 ± 2.1 µM for the first, 23.3 ± 1.5 µM for the second. The second is the more potent here.

— paper PMC5929560, “Deciphering the binding behavior of flavonoids to the cyclin dependent kinase 6/cyclin D complex” (PLoS ONE, 2018)
